Reference: PubChem BioAssay (NCI)
“And” between values parts separate entries of the source, which are not always exact repeats. Equal values may be shown once.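 Tested at 5 concentrations; 48 h exposure; 96-well plates; endpoints linearly interpolated, else capped at highest concentration. GI50 marks 50% less growth. TGI: total growth inhibition.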

How the values were obtained:
Assay in all cases: DTP human tumour cell line panel, 48 h
MALME-3M melanoma = test system: MALME-3M melanoma
LOX IMVI melanoma = test system: LOX IMVI melanoma
SK-MEL-2 melanoma = test system: SK-MEL-2 melanoma
BT-549 breast = test system: BT-549 breast
SF-295 CNS = test system: SF-295 CNS
K-562 leukemia = test system: K-562 leukemia
DU-145 prostate = test system: DU-145 prostate
NCI-H522 lung = test system: NCI-H522 lung
A549 NSCLC = test system: A549 NSCLC
786-0 renal = test system: 786-0 renal

SMILES	GI50 (MALME-3M melanoma) [µM]	TGI (MALME-3M melanoma)	GI50 (LOX IMVI melanoma) [µM]	TGI (LOX IMVI melanoma)	GI50 (SK-MEL-2 melanoma) [µM]	TGI (SK-MEL-2 melanoma)	GI50 (BT-549 breast) [µM]	TGI (BT-549 breast)	GI50 (SF-295 CNS) [µM]	TGI (SF-295 CNS)	GI50 (K-562 leukemia) [µM]	TGI (K-562 leukemia) [µM]	GI50 (DU-145 prostate) [µM]	TGI (DU-145 prostate)	GI50 (NCI-H522 lung) [µM]	TGI (NCI-H522 lung)	GI50 (A549 NSCLC) [µM]	TGI (A549 NSCLC)	GI50 (786-0 renal) [µM]	TGI (786-0 renal)
COc1cc2c3c(n(C)c(=O)c2cc1OC)-c1ccc(C#N)cc1C3=O	> 100	> 100 µM	> 100	> 100 µM	> 100	> 100 µM	> 100	> 100 µM	73.7	> 100 µM	> 100	> 100	> 100	> 100 µM	52	> 100 µM	> 100	> 100 µM	> 100	> 100 µM
Nc1ncnc2c1ncn2C1OC(CO)C(O)C1N (configuration not stated)	–	> 100 µM	–	> 100 µM	–	> 100 µM	–	> 100 µM	–	> 100 µM	–	> 100	–	> 100 µM	–	> 100 µM	–	> 100 µM	–	> 100 µM
O=C(CN1C(=O)S/C(=C\C(Cl)=C\c2ccccc2)C1=O)NC1C=CS(=O)(=O)C1 (configuration not stated)	1.27	3.93 µM	0.24	0.624 µM	2.11	5.22 µM	1.75	4.78 µM	2.32	5.19 µM	0.4	> 100	1.83	4.27 µM	0.299	1.33 µM	3	> 100 µM	1.8	4.37 µM
COc1cc2c(=O)[nH]c3cc([N+](=O)[O-])ccc3c2cc1[N+](=O)[O-]	9.91	> 100 µM	3.51	> 100 µM	22.9	> 100 µM	7.89	> 100 µM	6.27	> 100 µM	5.97	> 100	4.63	> 100 µM	1.67	> 100 µM	4.11	> 100 µM	11.9	> 100 µM
O=S(=O)(c1cnccc1N1CCN(CCO)CC1)N1CCCC1	–	> 100 µM	–	> 100 µM	–	> 100 µM	–	> 100 µM	–	> 100 µM	–	> 100	–	> 100 µM	–	> 100 µM	–	> 100 µM	–	> 100 µM
COc1cc(-c2nn(-c3cccc(NC(=O)c4ccc(Cl)c(C(F)(F)F)c4)c3)cc2-c2ccncc2)ccc1Cl	0.922	6.68 µM	1.92	> 32.5 µM	1.42	10.1 µM	4.35	> 32.5 µM	1.08	8.19 µM	1.21	> 32.5	5.46	> 32.5 µM	0.794	5.52 µM	2.41	> 32.5 µM	8.2	> 32.5 µM
CN(C)C(=S)SCC(=O)Nc1ccccc1	–	> 100 µM	–	> 100 µM	–	> 100 µM	–	> 100 µM	–	> 100 µM	–	> 100	–	> 100 µM	–	> 100 µM	–	> 100 µM	–	> 100 µM
COc1cccc(/C=C2\COc3ccc(-c4ccccc4)cc3C2=O)c1	2.53	12.6 µM	2.02	4.62 µM	2.38	5.27 µM	2.09	4.94 µM	2.52	10.3 µM	3.32	> 100	2.05	5.43 µM	1.86	4.06 µM	3.17	18.7 µM	2.63	6.45 µM
O=C1/C=C/[C@@H](O)[C@@H]2C[C@@H](O)C[C@H]2/C=C/CCC[C@H](C(F)(F)F)O1	0.0437	0.292 µM	0.137	0.388 µM	0.244	0.78 µM	0.211	10.8 µM	> 27	> 100 µM	0.336	> 69.1	0.955	> 100 µM	0.191	0.515 µM	2.1	> 100 µM	0.126	0.469 µM
CCn1c(-c2nonc2N)nc2cncc(C(=O)N3CC[C@H](N)C3)c21	> 25	> 25 µM	> 25	> 25 µM	> 25	> 25 µM	3.92	> 25 µM	5.05	> 25 µM	> 25	> 25	> 25	> 25 µM	> 9.56	> 25 µM	7.29	> 25 µM	> 20.4	> 25 µM
COC(=O)CSSCc1ccc([N+](=O)[O-])cc1	–	67.7 µM	–	30.3 µM	–	42.4 µM	–	41.7 µM	–	43 µM	–	> 100	–	50.7 µM	–	30.8 µM	–	88.8 µM	–	65.3 µM
O=c1[nH]cnc2c1nnn2CCCCCCCCCCCCn1nnc2c(=O)[nH]cnc21	–	> 100 µM	–	> 100 µM	–	51 µM	–	> 100 µM	–	48.4 µM	–	> 100	–	> 100 µM	–	63 µM	–	> 100 µM	–	60.5 µM
CC(=O)[O][Hg][c]1c(C)c(C)cc(C)c1C	1.33	2.75 µM	1.21	3.06 µM	1.53	3.3 µM	1.86	3.79 µM	1.87	4.14 µM	0.743	11	1.86	4.62 µM	0.194	0.486 µM	5.55	15 µM	1.76	3.28 µM
CC[C@H](C)[C@H](NC(=O)CN(C)C)C(=O)N(C)[C@H](C[C@@H](OC(C)=O)c1nc(C(=O)NC23CC(C(=O)OC)(C2)C3)cs1)C(C)C	> 6.28	> 25 µM	0.276	> 25 µM	1.51	> 25 µM	0.151	> 13.9 µM	0.647	> 25 µM	0.0733	> 25	0.183	> 25 µM	0.0511	> 7.88 µM	1.62	> 25 µM	0.741	> 25 µM
CN1CSC(=S)N(Cc2ccccc2)C1	15.4	37.4 µM	2.75	11.6 µM	4.64	18.2 µM	17.1	70.1 µM	32.7	> 100 µM	2.81	> 100	2.05	6.21 µM	1.89	5.65 µM	30.2	> 100 µM	12	44.2 µM
O=C1c2ccccc2C(=O)c2c(OCCOCCO)cccc21	–	> 100 µM	–	> 100 µM	–	> 100 µM	–	> 100 µM	–	> 100 µM	–	> 100	–	> 100 µM	–	> 100 µM	–	> 100 µM	–	> 100 µM
CC1=C(C(=O)Nc2ccc(Cl)c(C(=O)OC(C)C)c2)SCCO1	–	92.2 µM	–	84.6 µM	–	75.4 µM	–	> 100 µM	–	> 80.7 µM	–	> 90.2	–	> 100 µM	–	69.9 µM	–	65.8 µM	–	> 100 µM
CC(=O)c1c(C)[nH]c(-c2nc3ccc(N4CCN(C)CC4)cc3[nH]2)c1-c1ccccc1	0.961	12.7 µM	0.546	10.1 µM	4.02	22.2 µM	8.81	29.8 µM	2.07	19.2 µM	0.779	> 100	10.2	47 µM	0.258	14.4 µM	1.45	22.5 µM	1.71	20.5 µM
CSc1ccc2c(c1)C(N1CCN(C)CC1)Cc1ccccc1S2 (configuration not stated)	–	4.28 µM and 3.41 µM	1.63	4.05 µM and 3.05 µM	1.95	7.82 µM and 3.8 µM	2.84	17.6 µM and 9.3 µM	1.84	15.2 µM and 3.7 µM	–	4.5	2.04	31.4 µM and 4.38 µM	1.76	10.2 µM and 3.29 µM	2.17	24.2 µM and 5.72 µM	1.77	19.8 µM and 3.36 µM
COc1ccc(N(C)c2nc(N)nc3sc4c(c23)CCCC4)cc1	< 0.0125	18.9 µM	< 0.01	15.3 µM	0.0441	17.2 µM	0.0123	10.5 µM	< 0.01	13.1 µM	< 0.01	> 42.2	< 0.0166	11.2 µM	< 0.01	–	< 0.0149	17.3 µM	< 0.01	13.2 µM
Cc1cc(Cl)nc(N(CCCNc2ccnc3cc(Cl)ccc23)Cc2ccco2)n1	2.21	5.58 µM	2.07	5.4 µM	2.82	9.19 µM	2.16	6.47 µM	1.28	2.81 µM	1.4	5.86	3.48	14.7 µM	2.93	12.4 µM	3.28	13.9 µM	1.91	4.61 µM
